Test results reported in patent US20190112598A1, “Methods and Systems of Cell-Free Enzyme Discovery and Optimization” (President and Fellows of Harvard College, priority 2016, published 2019).

Target: T1, AcuR (Cereibacter sphaeroides, UniProt Q3J6K8)
T1 construct: made in house; host or cells: cell-free expression reaction (NEB P/N E6800 components A and B) from T7-promoter linear dsDNA, made in the assay well itself
T1 sequence (Q3J6K8 1-219): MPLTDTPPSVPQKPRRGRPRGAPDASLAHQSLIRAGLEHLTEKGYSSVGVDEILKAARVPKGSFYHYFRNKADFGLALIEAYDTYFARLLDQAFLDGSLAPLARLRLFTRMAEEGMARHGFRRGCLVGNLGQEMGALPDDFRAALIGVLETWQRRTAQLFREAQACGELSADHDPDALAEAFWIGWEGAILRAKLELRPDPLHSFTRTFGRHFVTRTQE
Experiment: Cell-free observation of acrylate: AcuR sensor with GFP reporter in a cell-free expression reaction
Type: biochemical
Details: 0.1 mM sodium acrylate; 37° C.; 395 nm excitation; measured every two minutes for 4 hours; sample without acrylate rose to 260; FIG. 1
Source text: DNA encoded biological acrylate sensor was used to detect acrylate. AcuR is a transcription factor whose activity is dependent on the concentration of acrylate. A linear dsDNA encoding the acrylate sensor AcuR is combined with a reporter circular plasmid which contained a GFP protein controlled by a promoter regulated by AcuR. Thus, GFP fluorescence is related to the amount of acrylate in the sample.
In order to obtain an adequate signal-to-noise ratio (SNR), a T7 promoter was used to drive the expression of the sensor to achieve high expression of the sensor protein and ensure outnumbering of the number of reporter promoters, and well controlled expression. Additionally, an E. coli RNAP promoter was used to drive expression on the reporter, as it reduces the level of background signal, and provides with a more accurate control by AcuR.
Linear DNA amplification: Linear dsDNA containing AcuR was prepared by PCR amplification using primers which contain a T7 promoter, and ribosome binding site (RBS). […]
The samples were incubated at 37° C., and the fluorescence signal (395 nm excitation, 470 nm […]) of the sample was measured every two minutes for 4 hours.

C=CC(=O)O [acrylate]
increase of fluorescence (GFP reporter signal): 750 arbitrary units
